Results on twelve molecules are retold here after PubChem BioAssay (NCI).

Structures are written as SMILES.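 Compound exposure: 48 hours, 5 concentrations, 96-well plates. TGI: concentration producing complete growth inhibition.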

One test relates to HCT-15 colon. The test can be described thus: growth of human tumour cells (NCI), 48 h.
For `Cc1occc1C(=S)Nc1ccc(Cl)c(C(=O)OCC(F)(F)F)c1`, the TGI came to 45.3 µM.

`CCOC(=O)NC(C(F)(F)F)(C(F)(F)F)P(=O)(OC(C)C)OC(C)C` came in with a TGI above 100 µM.

The molecule `O=C(O)C1CC2C3CCC2C1C3=O` (stereo not given) had a TGI above 100 µM.

For the molecule `CCOC(=O)C(c1c[nH]c2ccccc12)(c1c[nH]c2ccccc12)c1c[nH]c2ccccc12`, the TGI was above 100 µM.

`CN(C)c1ccc(-c2c(C#N)c(N)[nH]c(=S)c2C#N)cc1` came in with a TGI above 100 µM.

`O=c1[nH]c(=O)n(C2OC(CO)C(O)C(F)C2O)cc1F` (stereo not given) displayed a TGI above 100 µM.

Turning to `CCOC(=O)/C(C)=C\[C@@]1(C)O[C@@H](C)[C@@](C)(OC(C)=O)[C@@H]1OC(C)=O`, the TGI is 60.2 µM.

The next test has as its system OVCAR-8 ovarian. Nature of the test: growth of human tumour cells (NCI), 48 h.
With `O=c1c2cc(S(=O)(=O)Nc3ccccc3Cl)ccc2ncn1NS(=O)(=O)c1ccc(Br)cc1`, the TGI was above 37.5 µM.

With `N#CC1(C#N)C2CCCCC23OC(=N)C1(C#N)C(c1ccco1)O3` (stereo not given), the TGI was 73.6 µM.

Regarding `CC1C2CC(CC(=O)N2)C1(C)C` (stereo not given), the TGI is above 100 µM.

`CCOC(=O)CCC(NC(=O)Cc1ccc(Nc2nc3ccccc3nc2-c2ccccc2)cc1)C(=O)OCC` (stereo not given) registered a TGI above 100 µM.

For the molecule `Cc1occc1C(=S)Nc1ccc(Cl)c(C(=O)OCC(F)(F)F)c1`, the TGI amounted to 36.2 µM.

For the molecule `CCOC(=O)NC(C(F)(F)F)(C(F)(F)F)P(=O)(OC(C)C)OC(C)C`, the TGI is above 100 µM.

`O=C(O)C1CC2C3CCC2C1C3=O` (stereo not given) yielded a TGI above 100 µM.

For `CCOC(=O)C(c1c[nH]c2ccccc12)(c1c[nH]c2ccccc12)c1c[nH]c2ccccc12`, the TGI is above 100 µM.

Regarding `CN(C)c1ccc(-c2c(C#N)c(N)[nH]c(=S)c2C#N)cc1`, the TGI was above 100 µM.

Molecule `O=c1[nH]c(=O)n(C2OC(CO)C(O)C(F)C2O)cc1F` (stereo not given) registered a TGI above 100 µM.

`CCOC(=O)/C(C)=C\[C@@]1(C)O[C@@H](C)[C@@](C)(OC(C)=O)[C@@H]1OC(C)=O` displayed a TGI above 100 µM.

The test system of the next test is CAKI-1 renal. The test can be described thus: growth of human tumour cells (NCI), 48 h.
The molecule `O=c1c2cc(S(=O)(=O)Nc3ccccc3Cl)ccc2ncn1NS(=O)(=O)c1ccc(Br)cc1` came in with a TGI above 37.5 µM.

`CC1=C(C(=O)Nc2cccc3c2C(=O)NC3=O)CC(C(=O)Nc2cccc3c2C(=O)NC3=O)=C(C)N1` showed a TGI above 100 µM.

`N#CC1(C#N)C2CCCCC23OC(=N)C1(C#N)C(c1ccco1)O3` (stereo not given) returned a TGI of 24.5 µM.

For the molecule `CC1C2CC(CC(=O)N2)C1(C)C` (stereo not given), the TGI was above 100 µM.

On to `CCOC(=O)CCC(NC(=O)Cc1ccc(Nc2nc3ccccc3nc2-c2ccccc2)cc1)C(=O)OCC` (stereo not given), for which the TGI was above 100 µM.

`Cc1occc1C(=S)Nc1ccc(Cl)c(C(=O)OCC(F)(F)F)c1`: the TGI is 82.6 µM.

On to `O=C(O)C1CC2C3CCC2C1C3=O` (stereo not given), for which the TGI is above 100 µM.

`CCOC(=O)C(c1c[nH]c2ccccc12)(c1c[nH]c2ccccc12)c1c[nH]c2ccccc12` returned a TGI above 100 µM.

`CN(C)c1ccc(-c2c(C#N)c(N)[nH]c(=S)c2C#N)cc1` yielded a TGI above 100 µM.

Molecule `O=c1[nH]c(=O)n(C2OC(CO)C(O)C(F)C2O)cc1F` (stereo not given) yielded a TGI above 100 µM.

`CCOC(=O)/C(C)=C\[C@@]1(C)O[C@@H](C)[C@@](C)(OC(C)=O)[C@@H]1OC(C)=O` registered a TGI above 100 µM.

Another test relates to NCI-H226 lung. The test can be described thus: growth of human tumour cells (NCI), 48 h.
Molecule `O=c1c2cc(S(=O)(=O)Nc3ccccc3Cl)ccc2ncn1NS(=O)(=O)c1ccc(Br)cc1` gave a TGI above 37.5 µM.

Take `N#CC1(C#N)C2CCCCC23OC(=N)C1(C#N)C(c1ccco1)O3` (stereo not given): the TGI was above 100 µM.

`CC1C2CC(CC(=O)N2)C1(C)C` (stereo not given) had a TGI above 100 µM.

Regarding `CCOC(=O)CCC(NC(=O)Cc1ccc(Nc2nc3ccccc3nc2-c2ccccc2)cc1)C(=O)OCC` (stereo not given), the TGI was above 100 µM.

Consider `Cc1occc1C(=S)Nc1ccc(Cl)c(C(=O)OCC(F)(F)F)c1`, for which the TGI was determined as 35.9 µM.

Molecule `CCOC(=O)NC(C(F)(F)F)(C(F)(F)F)P(=O)(OC(C)C)OC(C)C` showed a TGI above 100 µM.

As to `O=C(O)C1CC2C3CCC2C1C3=O` (stereo not given), the TGI was above 100 µM.

For `CN(C)c1ccc(-c2c(C#N)c(N)[nH]c(=S)c2C#N)cc1`, the TGI came out at 92.2 µM.

`O=c1[nH]c(=O)n(C2OC(CO)C(O)C(F)C2O)cc1F` (stereo not given): the TGI was above 100 µM.

`CCOC(=O)/C(C)=C\[C@@]1(C)O[C@@H](C)[C@@](C)(OC(C)=O)[C@@H]1OC(C)=O` displayed a TGI above 100 µM.

For a further test, the system named is MDA-MB-231 breast. The test can be described thus: growth of human tumour cells (NCI), 48 h.
`O=c1c2cc(S(=O)(=O)Nc3ccccc3Cl)ccc2ncn1NS(=O)(=O)c1ccc(Br)cc1` yielded a TGI above 37.5 µM.

In the case of `CC1=C(C(=O)Nc2cccc3c2C(=O)NC3=O)CC(C(=O)Nc2cccc3c2C(=O)NC3=O)=C(C)N1`, the TGI was above 100 µM.

`N#CC1(C#N)C2CCCCC23OC(=N)C1(C#N)C(c1ccco1)O3` (stereo not given) yielded a TGI of 33 µM.

Turning to `CC1C2CC(CC(=O)N2)C1(C)C` (stereo not given), the TGI was above 100 µM.

`CCOC(=O)CCC(NC(=O)Cc1ccc(Nc2nc3ccccc3nc2-c2ccccc2)cc1)C(=O)OCC` (stereo not given) came in with a TGI of 53.3 µM.

For `Cc1occc1C(=S)Nc1ccc(Cl)c(C(=O)OCC(F)(F)F)c1`, the TGI was 35.2 µM.

In turn, `CCOC(=O)NC(C(F)(F)F)(C(F)(F)F)P(=O)(OC(C)C)OC(C)C` showed a TGI above 100 µM.

`O=C(O)C1CC2C3CCC2C1C3=O` (stereo not given) yielded a TGI above 100 µM.

On to `CCOC(=O)C(c1c[nH]c2ccccc12)(c1c[nH]c2ccccc12)c1c[nH]c2ccccc12`, for which the TGI was above 100 µM.

As for `CN(C)c1ccc(-c2c(C#N)c(N)[nH]c(=S)c2C#N)cc1`, the TGI was above 100 µM.

For `O=c1[nH]c(=O)n(C2OC(CO)C(O)C(F)C2O)cc1F` (stereo not given), the TGI was above 100 µM.

On to `CCOC(=O)/C(C)=C\[C@@]1(C)O[C@@H](C)[C@@](C)(OC(C)=O)[C@@H]1OC(C)=O`, for which the TGI is above 100 µM.

The next test deals with MDA-N. Nature of the test: growth of human tumour cells (NCI), 48 h.
`O=c1c2cc(S(=O)(=O)Nc3ccccc3Cl)ccc2ncn1NS(=O)(=O)c1ccc(Br)cc1` had a TGI above 37.5 µM.

Molecule `CC1=C(C(=O)Nc2cccc3c2C(=O)NC3=O)CC(C(=O)Nc2cccc3c2C(=O)NC3=O)=C(C)N1` showed a TGI above 100 µM.

Molecule `N#CC1(C#N)C2CCCCC23OC(=N)C1(C#N)C(c1ccco1)O3` (stereo not given) registered a TGI of 33.8 µM.

For `CC1C2CC(CC(=O)N2)C1(C)C` (stereo not given), the TGI was above 100 µM.
